Results reported in patent US20070037825A1, “Enhancing the effect of radioimmunotherapy in the treatment of tumors” (priority 2002, published 2007).
Counter-ions that a name gives are not always drawn. Marks after values point to notes of the source that are not given here.

Key:
[1] = system: LS174T cells; assay: Effect of COMPOUND I mesylate on radiosensitivity of in vitro grown cells; type: cell-based, human
[2] = system: LS174T SQ xenografts; assay: Effect of COMPOUND I on radiosensitivity of adenocarcinoma xenografts (external radiation); settings: P=0.127, Mantel-Cox logrank analysis
[3] = system: LS174T human colorectal adenocarcinoma xenografts; assay: Radioimmunotherapy of SQ LS174T xenografts in athymic mice, with or without COMPOUND I mesylate; settings: for Relative tumor growth: relative to no treatment = 1

Cc1ccc(NC(=O)c2ccc(CN3CCN(C)CC3)cc2)cc1Nc1nccc(-c2cccnc2)n1 [COMPOUND I mesylate]
effect on radiosensitivity, combined with radiation ([1]; monolayer, irradiation 1.95 Gy/min, total doses 1 Gy and 6 Gy): not sufficient in vitro to synchronize all cells
effect on cell cycle ([1]; pharmacologically relevant concentrations): Arrest of LS174T cells in the G1 phase
difference between radiation plus COMPOUND I mesylate and radiation only [2]: no statistical differences
Tq (days) ([3]; quadrupling time calculated on day 10 (*), COMPOUND I mesylate PO BID 2 mg/mouse/day): 7.75* days
Relative tumor growth [3]: 1

B1: ^131I-B72.3: iodine-131 labeled anti-TAG72 monoclonal antibody B72.3 (radioimmunoconjugate) (conjugate, chains of the INN, looked up)
VH: QVQLQQSDAELVKPGASVKISCKASGYTFTDHAIHWAKQKPEQGLEWIGYISPGNDDIKYNEKFKGKATLTADKSSSTAYMQLNSLTSEDSAVYFCKRSYYGHWGQGTTLTVSS
VL: DIQMTQSPASLSVSVGETVTITCRASENIYSNLAWYQQKQGKSPQLLVYAATNLADGVPSRFSGSGSGTQYSLKINSLQSEDFGSYYCQHFWGTPYTFGGGTRLEIK
modifications: iodine-131 label
effect of combined treatment with COMPOUND I mesylate in vitro ([1]; ^131I-labeled antibody plus COMPOUND I mesylate): neither additive nor synergistic effects are measurable
tumor response ([3]; escalating doses): cures and tumor growth arrest
Tq (days) ([3]; quadrupling time calculated on day 28 (**) after 0.25 mCi ^131I-B72.3 IV): 18.95** days
Relative tumor growth [3]: 2.4
tumor response ([3]; single dose of 0.5 mCi or similar doses): growth delay but no cures
